# Where a chain is given by its changes, count along the chain named.
# Experiments:
# Assay type in all cases: cell-based
# GluD2 [1] = target: T1, GluD2 (Mus musculus, UniProt Q61625, A654T/I677C); test: whole-cell patch-clamp dose-response ([…]) under […] nm light; […] under […] nm
# T1 construct: gene Grid2; pcDNA3-GluD2 expressed in HEK tsA201 cells, conjugated with MAGu
# T1 sequence (Q61625 24-1007 A654T/I677C): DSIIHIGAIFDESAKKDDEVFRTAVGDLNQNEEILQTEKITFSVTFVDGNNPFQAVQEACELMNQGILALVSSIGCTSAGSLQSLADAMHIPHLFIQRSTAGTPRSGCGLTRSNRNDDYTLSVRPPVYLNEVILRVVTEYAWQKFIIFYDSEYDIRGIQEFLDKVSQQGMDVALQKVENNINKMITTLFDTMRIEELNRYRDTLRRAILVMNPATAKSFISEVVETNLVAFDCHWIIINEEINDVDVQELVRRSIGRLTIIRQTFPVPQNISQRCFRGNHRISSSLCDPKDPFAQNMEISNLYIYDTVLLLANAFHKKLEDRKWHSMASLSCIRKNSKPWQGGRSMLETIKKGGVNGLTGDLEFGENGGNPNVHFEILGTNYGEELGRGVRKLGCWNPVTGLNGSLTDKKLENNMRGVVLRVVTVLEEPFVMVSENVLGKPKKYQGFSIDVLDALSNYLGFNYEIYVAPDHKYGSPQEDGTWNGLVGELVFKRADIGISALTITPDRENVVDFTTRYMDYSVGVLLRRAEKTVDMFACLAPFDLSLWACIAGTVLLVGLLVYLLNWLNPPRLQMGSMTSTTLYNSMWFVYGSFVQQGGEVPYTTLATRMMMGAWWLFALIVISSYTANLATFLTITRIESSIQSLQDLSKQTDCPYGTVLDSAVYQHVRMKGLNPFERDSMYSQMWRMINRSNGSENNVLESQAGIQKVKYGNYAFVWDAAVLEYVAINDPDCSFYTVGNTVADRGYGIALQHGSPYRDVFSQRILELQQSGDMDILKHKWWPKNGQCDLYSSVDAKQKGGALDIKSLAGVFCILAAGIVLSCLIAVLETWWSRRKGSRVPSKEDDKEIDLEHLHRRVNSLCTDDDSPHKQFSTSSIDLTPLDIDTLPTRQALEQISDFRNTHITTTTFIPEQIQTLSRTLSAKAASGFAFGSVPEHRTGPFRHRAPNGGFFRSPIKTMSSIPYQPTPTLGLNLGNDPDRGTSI
# GluD2 [2] = target: T2, GluD2 (Mus musculus, UniProt Q61625, I677C); test: patch-clamp of DHPG-induced current under […] vs […] nm light; WT control insensitive
# T2 construct: gene Grid2; non-Lurcher GluD2 (LiGluD2) co-expressed with mGlu1b in HEK tsA201 cells
# T2 sequence (Q61625 24-1007 I677C): T1 sequence (Q61625 24-1007 A654T/I677C) with T631A
# GluD2 [3] = target: T3, GluD2 (Mus musculus, UniProt Q61625, A654T/Q674C); test: whole-cell patch-clamp photoswitching after covalent labeling
# T3 construct: gene Grid2; pcDNA3-GluD2 expressed in HEK tsA201 cells
# T3 sequence (Q61625 24-1007 A654T/Q674C): T1 sequence (Q61625 24-1007 A654T/I677C) with Q651C, C654I
# GluD2 [4] = target: T4, GluD2 (Mus musculus, UniProt Q61625, A654T/Q666C); test: as above
# T4 construct: gene Grid2; pcDNA3-GluD2 expressed in HEK tsA201 cells
# T4 sequence (Q61625 24-1007 A654T/Q666C): T1 sequence (Q61625 24-1007 A654T/I677C) with Q643C, C654I
# GluD2 [5] = target: T5, GluD2 (Mus musculus, UniProt Q61625, A654T/D670C); test: as above
# T5 construct: gene Grid2; pcDNA3-GluD2 expressed in HEK tsA201 cells
# T5 sequence (Q61625 24-1007 A654T/D670C): T1 sequence (Q61625 24-1007 A654T/I677C) with D647C, C654I
SMILES,IC50 (GluD2 [1]) [µM],% reduction of DHPG-induced current (535 vs 380 nm) (GluD2 [2]),% photoswitching (relative to pentamidine block) (GluD2 [3]),% photoswitching (relative to pentamidine block) (GluD2 [4]),% photoswitching (relative to pentamidine block) (GluD2 [5])
N=C(N)c1ccc(OCCCCCOc2ccc(C(=N)N)cc2)cc1 [Pentamidine],5.1,–,–,–,–
N=C(N)NCC(=O)Nc1ccc(/N=N/c2ccc(NC(=O)CCN3C(=O)C=CC3=O)cc2)cc1 [MAGu],–,22.8 % reduction of DHPG-induced current (535 vs 380 nm),20.5 % photoswitching (relative to pentamidine block),15.5 % photoswitching (relative to pentamidine block),14.6 % photoswitching (relative to pentamidine block)
